≈ marks a conversion by molar mass, not a printed value. Like-named read-outs stand apart in the source and are kept apart here.
Legend:
Type in all cases: cell-based
[1] = tested on: methicillin-resistant coagulase-negative Staphylococcus (MRCNS) P1369; assay: microbe, parasite or virus in culture; settings: Staphylococcus
Description: (§1) The MIC was determined via a microdilution assay in 96-well microtiter plates according to the broth microdilution guideline of Clinical and Laboratory Standards Institute (CLSI).

[2] = tested on: penicillin-sensitive S. epidermidis (PSSE) P1111; assay: microbe, parasite or virus in culture
Description: (§2) Clinical isolates were obtained from the 302nd military hospital of Beijing, China, including penicillin-resistant S. aureus (PRSA) P1383, penicillin-resistant S. epidermidis (PRSE) P1389, methicillin-resistant S. aureus (MRSA) P1381, P1386 and P1374, methicillin-resistant coagulase-negative Staphylococcus (MRCNS) P1369, and penicillin-sensitive S. epidermidis (PSSE) P1111.
as §1

[3] = tested on: methicillin-resistant S. aureus (MRSA) P1374; assay: microbe, parasite or virus in culture
Description: as §2, §1

[4] = tested on: methicillin-resistant S. aureus (MRSA) P1386; assay: microbe, parasite or virus in culture
Description: as §2, §1

[5] = tested on: penicillin-resistant S. epidermidis (PRSE) P1389; assay: microbe, parasite or virus in culture
Description: as §2, §1

[6] = tested on: penicillin-resistant S. aureus (PRSA) P1383; assay: microbe, parasite or virus in culture
Description: as §2, §1

[7] = tested on: methicillin-resistant S. aureus (MRSA) P1381; assay: microbe, parasite or virus in culture
Description: as §2, §1

S. aureus AB94004 = assay: Enzyme release assay (catalase); settings: S. aureus AB94004, 37°C; 0.9% saline negative control; Figure 4C
Description: (§3) Figure 4 Secondary structure and enzyme release assay of Kn2-7. (A) and (B) Secondary structure analysis of the Kn2-7 and BmKn2 peptides. (A) Circular dichroism spectra of 0.1 mg/mL of Kn2-7 in water, 30% TFE/H2O or 70% TFE/H2O. (B) Circular dichroism spectra of 0.1 mg/mL of BmKn2 in water, 30% TFE/H2O or 70% TFE/H2O. (C) and (D) Enzyme release assay. (C) S. aureus AB94004 treated with Kn2-7 or BmKn2 was harvested, and the catalase activities of the supernatants were measured; 0.9% saline was used as the negative control, and ampicillin sodium was used as the antibiotic control. (D) E. coli AB94012 treated with Kn2-7 or BmKn2 was harvested, and the catalase activities in the supernatants were measured; 0.9% saline was used as the negative control, and kanamycin was used as the antibiotic control.
(§4) Bacterial suspensions and serial-diluted peptides were mixed at a ratio of 4∶1 in different tubes with a final volume of 2 ml. The mixtures were then incubated at 37°C with continuous shaking. At each time point, 200 µl of the treated bacterial suspension was transferred to sterilized tubes. After centrifugation, the supernatants were transferred to a sterilized 1.5-ml tube, and catalase activity was measured with a Catalase Assay Kit (Beyotime, Jiangsu, China) using the method for measuring peroxidase activity.

E. coli AB94012 [8] = assay: Enzyme release assay (catalase); settings: E. coli AB94012, 37°C; 0.9% saline negative control; Figure 4D
Description: as §3, §4

E. coli AB94012 [9] = assay: Growth inhibitory assay (growth curves); settings: at a concentration of 6.25 µg/mL; Figure 2C
Description: Figure 2 Gowth inhibitory activities of Kn2-7. (A) Growth curves of S. aureus AB94004 treated with Kn2-7, BmKn2 or antibiotics. (B) Growth curves of MRSA P1386 treated with Kn2-7, BmKn2 or antibiotics. (C) Growth curves of E. coli AB94012 treated with Kn2-7, BmKn2 or antibiotics.
The time growth curves of S. aureus and MRSA treated with BmKn2 or its derivatives were determined based on measurements taken at 630 nm at each time point. Different concentrations of peptide were added to the tested strains, which were cultured in 96-well plates using the same method as was used for determining the MIC.

[10] = Staphylococcus epidermidis, read-out: MIC

Row | Compound | MIC [1] | MIC [2, 10] | MIC ([3]; Staphylococcus aureus, MRSA) | MIC ([4]; Staphylococcus aureus, MRSA) | MIC ([5]; Staphylococcus epidermidis) | MIC ([6]; Staphylococcus aureus) | MIC ([7]; Staphylococcus aureus, MRSA) | other results
1 | CO/N=C(\C(=O)N[C@@H]1C(=O)N2C(C(=O)O)=C(COC(C)=O)CS[C@H]12)c1csc(N)n1 [Cefotaxime] | 400 µg/mL (≈ 878 µM) | 6.25 µg/mL (≈ 13.7 µM) | 400 µg/mL (≈ 878 µM) | 100 µg/mL (≈ 220 µM) | 3.13 µg/mL (≈ 6.87 µM) | 6.25 µg/mL (≈ 13.7 µM) | 400 µg/mL (≈ 878 µM) | –
2 | CN[C@H](CC(C)C)C(=O)N[C@H]1C(=O)N[C@@H](CC(N)=O)C(=O)N[C@H]2C(=O)N[C@H]3C(=O)N[C@H](C(=O)N[C@H](C(=O)O)c4cc(O)cc(O)c4-c4cc3ccc4O)[C@H](O)c3ccc(c(Cl)c3)Oc3cc2cc(c3O[C@@H]2O[C@H](CO)[C@@H](O)[C@H](O)[C@H]2O[C@H]2C[C@](C)(N)[C@H](O)[C@H](C)O2)Oc2ccc(cc2Cl)[C@H]1O [Vancomycin] | 6.25 µg/mL (≈ 4.31 µM) | 3.13 µg/mL (≈ 2.16 µM) | 6.25 µg/mL (≈ 4.31 µM) | 3.13 µg/mL (≈ 2.16 µM) | 6.25 µg/mL (≈ 4.31 µM) | 6.25 µg/mL (≈ 4.31 µM) | 3.13 µg/mL (≈ 2.16 µM) | –
3 | CC1(C)S[C@@H]2[C@H](NC(=O)[C@H](N)c3ccccc3)C(=O)N2[C@H]1C(=O)O [ampicillin, reference compound] | – | – | – | – | – | – | – | Catalase activity of the supernatant over time (S. aureus AB94004): increasing catalase activity over time
4 | NC[C@H]1O[C@H](O[C@H]2[C@H](O)[C@@H](O[C@H]3O[C@H](CO)[C@@H](O)[C@H](N)[C@H]3O)[C@H](N)C[C@@H]2N)[C@H](O)[C@@H](O)[C@@H]1O [kanamycin, reference compound] | – | – | – | – | – | – | – | Catalase activity of the supernatant over time (E. coli AB94012 [8]): increasing catalase activity over time; Growth inhibition of E. coli AB94012 (growth curve) (E. coli AB94012 [9]): inhibited the growth of E. coli AB94012
5 | Penicillin | – | – | – | – | – | – | – | MIC ([2]; P1111, penicillin sensitive (PSSE) clinical isolate, repeated at least three times): 25 µg/mL; MIC ([3]; P1374, methicillin resistant (MRSA) clinical isolate, repeated at least three times): 5000 µg/mL; MIC ([4]; P1386, methicillin resistant (MRSA) clinical isolate, repeated at least three times): 10000 µg/mL; MIC ([5]; P1389, penicillin resistant (PRSE) clinical isolate, repeated at least three times): 10000 µg/mL; MIC ([6]; P1383, penicillin resistant (PRSA) clinical isolate, repeated at least three times): 10000 µg/mL; MIC ([7]; P1381, methicillin resistant (MRSA) clinical isolate, repeated at least three times): 5000 µg/mL

— publication PMC3390344, “Antibacterial Activity and Mechanism of a Scorpion Venom Peptide Derivative In Vitro and In Vivo” (PLoS ONE, 2012)
